The subject of data set [1] is avoidance behaviour in rats. Put plainly: conditioned avoidance behaviour (lever press to avoid foot shock), rats. The class given is in vivo. The settings on record: Rattus norvegicus, oral, read-out: oral dose that disrupts avoidance behaviour (decreases avoidance responses). The procedure: (§1) Each lever press postpones the shock for 30 seconds. Whenever the animal fails to press the lever once within said period, brief (0.5 sec.) shocks are delivered at 15 second intervals until the animal again presses the lever. Under control conditions the animals press the lever at a moderately steady rate and seldom receive more than five or six shocks during a 25-minute (rats) and up to 4-hour experimental session. Said compounds evaluated for neuroleptic activity, are administered to the animals 30, 90, 210 minutes prior to the experimental session and block the learned conditioned avoidance behaviour, manifested by a decrease in avoidance responding with a marked increase in shocks taken by the animal. Both the avoidance responses and failures (shocks received) are recorded separately for evaluation.
(§2) Indicative of the antipsychotic utility of the compounds of this invention, e.g. the compound of example 1, namely 2-methyl-5-(4-methyl-1-piperazinyl)-11H-1,2,4-triazolo[2,3-c][1,3]benzodiazepine maleate, disrupts avoidance behaviour, e.g. decreases avoidance responses in rats and monkeys at an oral dose of about 1.0 mg/kg or lower.

In data set [2] the test system is avoidance behaviour in monkeys. Put plainly: conditioned avoidance behaviour (lever press to avoid foot shock), monkeys. Type of data set: in vivo, squirrel monkeys. The settings on record: Primates, oral, read-out: oral dose that disrupts avoidance behaviour (decreases avoidance responses). Here is the method: as §1, §2
The test system of data set [3] is extrapyramidal side effects, e.g. dyskinesias and dystonias. Put plainly: extrapyramidal side effects in the monkey. Type of data set: in vivo. The settings on record: at effective antipsychotic doses.
For data set [4], the target named is histamine activation of adenylate cyclase. In words: inhibition of histamine activation of adenylate cyclase in vesicles from guinea pig cerebral cortex. The class given is biochemical. The settings on record: 50 micromolar histamine, 3H-cyclic AMP synthesis. The procedure:
Finally, said antihistaminic properties can be shown in vitro, e.g., according to Chasin et al., J. Neurochem. 22, 1031 (1974). Vesicles from a cell free preparation of guinea pig cerebral cortex are preincubated with ^3 H-adenine to form endogenous ^3 H-adenosine triphosphate. The vesicles are then incubated with 50 micromolar histamine to activate ^3 H-cyclic adenosine monophosphate synthesis in the absence or presence of the test compound at a concentration between 0.01 and 100 micromolar. When said compound is active, it inhibits the histamine activation of adenylate cyclase. The IC50 represents the concentration at which histamine activation is inhibited by 50%.

Molecules are shown by their SMILES.

Usually IC50 stands for the concentration that inhibits the measured activity by half.

With `Cc1nc2n(n1)C(N1CCN(C)CC1)=Nc1ccccc1C2.O=C(O)/C=C\C(=O)O` [Example 1, 2-methyl-5-(4-methyl-1-piperazinyl)-11H-1,2,4-triazolo[2,3-c][1,3]-benzodiazepine monomaleate], the minimal effective dose in data set [1] and in data set [2] was at most 1 mg/kg in each case. Moreover, the “extrapyramidal side effects, e.g. dyskinesias and dystonias” value in data set [3] was “essentially free of extrapyramidal side effects”. The compound also had an IC50 in data set [4] of around 300 nM.

The values are drawn from patent US4595535A, “Diazacycloalkyl-1,2,4-triazolo[2,3-c][1,3]benzodiazepines useful as neuroleptic and/or antihistaminic agents” (Ciba-Geigy Corporation, priority 1984, dated 1986).
